Values after ≈ are worked out from the molar mass of the structure shown. Read-outs that look alike come from different tables or passages of the source.
Assays:
F. nucleatum = assay: Agar dilution MIC, anaerobic microorganisms; assay type: cell-based; settings: Fusobacterium nucleatum, 48 h
Experimental: (§1) 1. Maintenance. Prior to use, all strains were maintained in the lyophilized state. During the study, cultures were examined on blood agar basal medium supplemented with 5.0% (v/v) defibrinated rabbit blood. Culture transfer was accomplished weekly with all cultures being incubated in an anaerobic atmosphere (GasPak jar; BBL).
(§2) 2. Agar Medium. The basal test medium consisted of trypticase soy agar (40 g), yeast extract (1 g), glucose (2 g) and 960 ml of distilled water pH 7.2. [Mashimo et al., J. Clin. Micro. 17, 187-191 (1983)]. Subsequent to sterilization and cooling to 50° C., the medium was supplemented with 4% (v/v) defibrinated rabbit blood and 0.5 μg/ml menadione (Vitamin K3) The agent under evaluation was also added at this time to the concentration desired. Subsequent to pouring of the plates, they were permitted to dry at 4° C. for 24 hr.
(§3) 3. Determination of Agent MIC. The minimal inhibitory concentration (MIC) of the various test agents was determined using an agar dilution technique. Agents and appropriate reference compounds were added to achieve a series of concentrations ranging between 32 μg/ml and 0.007 μg/ml. The inocula were prepared from 96-hr. cultures grown on the maintenance medium. Subsequent to a purity evaluation, colonies were removed and suspended in trypticase soy broth supplemented with 5 μg/ml menadione and 2% lysed rabbit blood filtrate to achieve an OD650 of 0.1 (this corresponded to approximately 10^8 cells/ml). Cultures were inoculated aerobically on the modified trypticase soy blood agar plates by use of a Steer's replicator (which delivers about 10^5 cells per spot). The plates were allowed to dry for a time not exceeding 30 min. and then incubated at 37° C. under an atmosphere of […], 10% H2 and 5% CO2 maintained in an anaerobic chamber (Coy Manufacturing Co.) for 48 hr. The MIC was defined as the lowest concentration completely inhibiting growth.
(§4) Tetracycline stock solutions (1 mg/ml) were made subsequent to dissolution in water. Stock solutions (1 mg/ml) of the remaining test compounds were made subsequent to dissolution in 1/10 N NaOH.

B. oralis = assay: Agar dilution MIC, anaerobic microorganisms; assay type: cell-based; settings: Hoylesella oralis, 48 h
Experimental: as §1, §2, §3, §4

B. melaninogenicus = assay: Agar dilution MIC, anaerobic microorganisms; assay type: cell-based; settings: 48 h
Experimental: as §1, §2, §3, §4

A. actinomycetemcomitans = assay: Agar dilution MIC, anaerobic microorganisms; assay type: cell-based; settings: Aggregatibacter actinomycetemcomitans, 48 h
Experimental: as §1, §2, §3, §4

B. intermedius = assay: Agar dilution MIC, anaerobic microorganisms; assay type: cell-based; settings: Prevotella intermedia, 48 h
Experimental: as §1, §2, §3, §4

F. polymorphum = assay: Agar dilution MIC, anaerobic microorganisms; assay type: cell-based; settings: 48 h
Experimental: as §1, §2, §3, §4

A. viscosus = assay: Agar dilution MIC, anaerobic microorganisms; assay type: cell-based; settings: Actinomyces viscosus, 48 h
Experimental: as §1, §2, §3, §4

B. gingivalis = assay: Agar dilution MIC, anaerobic microorganisms; assay type: cell-based; settings: Porphyromonas gingivalis, 48 h
Experimental: as §1, §2, §3, §4

Eikenella corrodens = assay: Agar dilution MIC, anaerobic microorganisms; assay type: cell-based; settings: 48 h
Experimental: as §1, §2, §3, §4

Capnocytophaga suptigena = assay: Agar dilution MIC, anaerobic microorganisms; assay type: cell-based; settings: 48 h
Experimental: as §1, §2, §3, §4

B. fragilis = assay: Agar dilution MIC, anaerobic microorganisms; assay type: cell-based; settings: Bacteroides fragilis, 48 h
Experimental: as §1, §2, §3, §4

periodontal diseases = settings: cited from earlier work; for usefulness in treating periodontal disease (in words): Genco 1981
Campylobacter sputorum = assay: Agar dilution MIC, anaerobic microorganisms; assay type: cell-based; settings: 48 h
Experimental: as §1, §2, §3, §4

Wolinella recta = assay: Agar dilution MIC, anaerobic microorganisms; assay type: cell-based; settings: Campylobacter rectus, 48 h
Experimental: as §1, §2, §3, §4

[1] = system: all thirteen of the target anaerobic microorganisms; assay: Antimicrobial activity against anaerobic microorganisms; assay type: cell-based
Experimental: as §1, §2, §3, §4

[2] = B. melaninogenicus, read-out: MIC
[3] = A. actinomycetemcomitans, read-out: MIC
[4] = Capnocytophaga suptigena, read-out: MIC

Compound | MIC (F. nucleatum; F. nucleatum, read-out: MIC) [µg/mL] | MIC (B. oralis; B. oralis, read-out: MIC) [µg/mL] | MIC (B. melaninogenicus; [2]) [µg/mL] | MIC (A. actinomycetemcomitans; [3]) [µg/mL] | MIC (B. intermedius; B. intermedius, read-out: MIC) [µg/mL] | MIC (F. polymorphum; F. polymorphum, read-out: MIC) [µg/mL] | MIC (Campylobacter sputorum) [µg/mL] | MIC (A. viscosus; A. viscosus, read-out: MIC) [µg/mL] | MIC (B. gingivalis; B. gingivalis, read-out: MIC) [µg/mL] | MIC (Eikenella corrodens; read-out: MIC) [µg/mL] | MIC (Capnocytophaga suptigena; [4]) [µg/mL] | MIC (B. fragilis; B. fragilis, read-out: MIC) [µg/mL] | MIC (Wolinella recta) [µg/mL] | usefulness in treating periodontal disease (in words) (periodontal diseases) | activity against microorganisms considered to participate in periodontal disease (in words) (periodontal diseases) | antimicrobial activity (in words) [1] | also measured
CN(C)C1C(=O)C(C(N)=O)=C(O)C2(O)C(=O)C3=C(O)c4c(O)cccc4C(C)(O)C3CC12 (centres unmarked) [9,424] | – | – | – | – | – | – | – | – | – | – | – | – | – | particularly useful | not active against all the microorganisms | – | MIC (F. nucleatum): 0.75 µg/mL (≈ 1.69 µM); MIC (B. oralis): 0.12 µg/mL (≈ 0.27 µM); MIC (B. melaninogenicus): 0.5 µg/mL (≈ 1.13 µM); MIC (A. actinomycetemcomitans): 1 µg/mL (≈ 2.25 µM); MIC (B. intermedius): 2 µg/mL (≈ 4.5 µM); MIC (F. polymorphum): 0.12 µg/mL (≈ 0.27 µM); MIC (A. viscosus): 2 µg/mL (≈ 4.5 µM); MIC (B. gingivalis): 0.12 µg/mL (≈ 0.27 µM); MIC (Eikenella corrodens): 2 µg/mL (≈ 4.5 µM); MIC (Capnocytophaga suptigena; Capnocytophaga): 1 µg/mL (≈ 2.25 µM); MIC (B. fragilis): 1 µg/mL (≈ 2.25 µM)
CCn1cc(C(=O)O)c(=O)c2ccc(-c3ccncc3)cc21 [35,213, 1-ethyl-1,4-dihydro-4-oxo-7-(4-pyridinyl)-3-quinolinecarboxylic acid] | > 10 | > 10 | 8 (≈ 27.2 µM) | 0.12 (≈ 0.408 µM) | 0.5 (≈ 1.7 µM) | > 10 | > 10 | > 10 | > 10 | 8 (≈ 27.2 µM) | 1 (≈ 3.4 µM) | > 10 | 0.5 (≈ 1.7 µM) | – | – | – | –
Cc1ncc([N+](=O)[O-])n1CCO [metronidazole] | – | – | – | – | – | – | – | – | – | – | – | – | – | particularly useful | not active against all the microorganisms | – | –

More lines, main results first:

MIC (F. nucleatum; F. nucleatum, read-out: MIC) [µg/mL] | MIC (B. oralis; B. oralis, read-out: MIC) [µg/mL] | MIC (B. melaninogenicus; [2]) [µg/mL] | MIC (A. actinomycetemcomitans; [3]) [µg/mL] | MIC (B. intermedius; B. intermedius, read-out: MIC) [µg/mL] | MIC (F. polymorphum; F. polymorphum, read-out: MIC) [µg/mL] | MIC (Campylobacter sputorum) [µg/mL] | MIC (A. viscosus; A. viscosus, read-out: MIC) [µg/mL] | MIC (B. gingivalis; B. gingivalis, read-out: MIC) [µg/mL] | MIC (Eikenella corrodens; read-out: MIC) [µg/mL] | MIC (Capnocytophaga suptigena; [4]) [µg/mL] | MIC (B. fragilis; B. fragilis, read-out: MIC) [µg/mL] | MIC (Wolinella recta) [µg/mL] | Compound | usefulness in treating periodontal disease (in words) (periodontal diseases) | activity against microorganisms considered to participate in periodontal disease (in words) (periodontal diseases) | antimicrobial activity (in words) [1] | also measured
8 (≈ 25.1 µM) | 4 (≈ 12.5 µM) | 4 (≈ 12.5 µM) | 0.06 (≈ 0.188 µM) | 0.5 (≈ 1.57 µM) | > 10 | 2 (≈ 6.26 µM) | > 10 | 4 (≈ 12.5 µM) | 4 (≈ 12.5 µM) | 0.5 (≈ 1.57 µM) | > 10 | 0.12 (≈ 0.376 µM) | CCn1cc(C(=O)O)c(=O)c2cc(F)c(N3CCNCC3)cc21 [50,297, 1-ethyl-6-fluoro-1,4-dihydro-4-oxo-7-(1-piperazinyl)-3-quinolinecarboxylicacid] | – | – | less active | –
8 (≈ 24 µM) | 4 (≈ 12 µM) | 4 (≈ 12 µM) | 0.06 (≈ 0.18 µM) | 0.5 (≈ 1.5 µM) | 8 (≈ 24 µM) | 4 (≈ 12 µM) | > 10 | 4 (≈ 12 µM) | 4 (≈ 12 µM) | 0.25 (≈ 0.75 µM) | 8 (≈ 24 µM) | 0.25 (≈ 0.75 µM) | CCn1cc(C(=O)O)c(=O)c2cc(F)c(N3CCN(C)CC3)cc21 [50,150, 1-ethyl-6-fluoro-1,4-dihydro-7-(4-methyl-1-piperazinyl)-4-oxo-3-quinolinecarboxylic acid] | – | – | less active | –

— US4698350A, “1-ethyl-6-fluoro-1,4-dihydro- 7-(2,6-dimethyl-4-pyridinyl)-4-oxo-3-quinolinecarboxylic acid and antibacterial use thereof” (Sterling Drug Inc., priority 1984, dated 1987)
